Patent publication US20220347309A1, “PYRROLOBENZODIAZEPINE RESISTANCE” (ADC THERAPEUTICS SA, priority 2018, published 2022)
Where two headings read alike, the source gives them in different places.

Experiments:
Karpas-299 PBDr cells = assay: Drug transporter inhibitor combination growth inhibition (MTS); type: cell-based, human; conditions: for re-sensitisation to ADCT-301 treatment: MK-571 (5 μM) or FTC (10 μM) for 24 hours before ADC
Procedure: (§1) The in vitro cytotoxicity assay (MTS) was carried out as previously described.
(§2) Cells were seeded at 10,000 cells per well in a flat bottom 96-well plate, and NCI-N87 cell were incubated overnight to allow for cell attachment.
(§3) For ADC growth inhibition assays, cells were then incubated with serial dilutions of ADCT-301 or ADCT-502 in triplicate.
(§4) Growth inhibition was measured after 96 hours in Karpas-299 cells and 144 hours in NCI-N87 cells using the CellTiter 96 AQueous One MTS Solution (Promega) and absorbance measured on a Multiskan Ascent plate reader (ThermoFisher) at 492 nm.
(§5) Growth inhibition was calculated as a percentage of absorbance compared to an untreated control, and IC50 values were calculated using the sigmoidal, 4PL, X is log(concentration) equation in GraphPad Prism. […]

Karpas-299 ADCr cells = assay: as above; type: cell-based, human; conditions: for re-sensitisation to ADCT-301 treatment: MK-571 (5 μM) or FTC (10 μM) for 24 hours before ADC
Procedure: as §1, §2, §3, §4, §5

NCI-N87 ADCr cells = assay: as above; type: cell-based, human; conditions: for response to ADCT-502: MK-571 (5 μM) or FTC (10 μM) for 24 hours before ADC
Procedure: as §2, §3, §4
(§6) Growth inhibition was calculated as a percentage of absorbance compared to an untreated control, and IC50 values were calculated using the sigmoidal, 4PL, X is log(concentration) equation in GraphPad Prism.
(§7) For drug transporter inhibitor combination cytotox, the resistant cell lines were incubated overnight with either 5 μM MK-571 (ABCC2 inhibitor), 10 μM FTC (ABCG2 inhibitor), 5 μM Reversin-121 ([…]) overnight before carrying out the ADC or PBD growth inhibition assay as previously described.

NCI-N87 PBDr cells = assay: as above; type: cell-based, human; conditions: for response to ADCT-502: MK-571 (5 μM) or FTC (10 μM) for 24 hours before ADC
Procedure: as §2, §3, §4, §6, §7

NCI-N87 wt cells = assay: MTS in vitro cytotoxicity, 144 h continuous exposure; type: cell-based, human; conditions: Homo sapiens, NCI-N87, 144 h, read-out: IC50 pM
Procedure: (§13) To generate a resistant population to either ADCT-502 or SG3199, human gastric cancer NCI-N87 cells (expressing HER2) were incubated with an approximate IC50 dose of the drug for 144 hours. The cells were then washed and returned to fresh medium until normal cell growth was recovered. This process was repeated until a measurable and stable loss in cytotoxic efficacy was established using the MTS assay.
(§14) To measure the in vitro cytotoxicity with the MTS assay, cells were incubated with a 10-fold dilution range of ADCT-502 or SG3199, and incubated with continuous exposure for 144 hours (at least three cell doubling times under normal cell culture conditions). After incubation the CellTiter 960 AQueous One Solution Cell Proliferation Assay (MTS) was used to measure growth inhibition, by adding 20 μl reagent to the cells and incubating for 3-4 hours, then reading the absorbance at 492 nm. Mean % growth of the ADC or PBD treated cells was calculated relative to an untreated control.
(§15) To measure the cross-resistance of the NCI-N87 ADCR cells to the SG3199 PBD warhead, and the PBDR cells to ADCT-502, the in vitro cytotoxicity assay was carried out as described above, treating the cells with the opposite drug molecule to the one with which they were generated.

[1] = system: NCI-N87 ADCr cells (ADCT-502 acquired resistant); assay: as above; type: cell-based, human; conditions: for cross-resistance (MTS growth inhibition compared to the parental cell line): NCI-N87 ADCr vs parental
Procedure: as §13, §14, §15

[2] = system: Karpas ADCr cells (ADCT-301 acquired resistant Karpas-299); assay: MTS in vitro cytotoxicity, 96 h continuous exposure
Procedure: (§8) To generate a resistant population to either ADCT-301 or SG3199, human anaplastic large cell lymphoma Karpas-299 cells (expressing CD25) were incubated with an approximate IC50 dose of the drug for 96 hours. The cells were then washed and returned to fresh medium until normal cell growth was recovered. This process was repeated until a measurable and stable loss in cytotoxic efficacy was established using the MTS assay.
(§9) To measure the in vitro cytotoxicity with the MTS assay, cells were incubated with a 10-fold dilution range of ADCT-301 or SG3199, and incubated with continuous exposure for 96 hours (at least three cell doubling times under normal cell culture conditions). After incubation the […] AQueous One Solution Cell Proliferation Assay (MTS) was used to measure growth inhibition, by adding 20 μl reagent to the cells and incubating for 3-4 hours, then reading the absorbance at 492 nm. Mean % growth of the ADC or PBD treated cells was calculated relative to an untreated control.
(§10) To measure the cross-resistance of the Karpas ADCR cells to the SG3199 PBD warhead, and the PBDR cells to ADCT-301, the in vitro cytotoxicity assay was carried out as described above, treating the cells with the opposite drug molecule to the one with which they were generated.
(§11) To measure the cross-resistance of the Karpas ADCR and PBDR cells to the PBD dimer warhead SG2000, the in vitro cytotoxicity (MTS) assay was carried out as previously described in Example 2.

[3] = system: Karpas PBDr cells (SG3199 acquired resistant Karpas-299); assay: as above
Procedure: as §8, §9, §10, §11

[4] = system: NCI-N87 PBDr cells (SG3199 acquired resistant); assay: MTS in vitro cytotoxicity, 144 h continuous exposure; type: cell-based, human; conditions: for cross-resistance (MTS growth inhibition compared to the parental cell line): NCI-N87 PBDr vs parental
Procedure: as §13, §14, §15

Karpas-299 wt cells = assay: MTS in vitro cytotoxicity, 96 h continuous exposure; type: cell-based; conditions: Homo sapiens, KARPAS-299, read-out: IC50 nM
Procedure: To measure the in vitro cytotoxicity with the MTS assay, cells were incubated with a 10-fold dilution range of ADCT-301 or SG3199, and incubated with continuous exposure for 96 hours (at least three cell doubling times under normal cell culture conditions). After incubation the CellTiter 960 AQueous One Solution Cell Proliferation Assay (MTS) was used to measure growth inhibition, by adding 20 μl reagent to the cells and incubating for 3-4 hours, then reading the absorbance at 492 nm. Mean % growth of the ADC or PBD treated cells was calculated relative to an untreated control.

[5] = molecular target: T1, CD25 on Karpas-299 ADCR cells (Homo sapiens, UniProt P01589); assay: CD25 antibody binding, flow cytometry; conditions: Karpas-299 ADCR vs wt, 1 hour on ice
T1 construct: endogenous in cells; host or cells: Karpas-299 acquired-resistant sublines (ADCR: selected with ADCT-301; PBDR: selected with SG3199)
T1 sequence (P01589 22-272): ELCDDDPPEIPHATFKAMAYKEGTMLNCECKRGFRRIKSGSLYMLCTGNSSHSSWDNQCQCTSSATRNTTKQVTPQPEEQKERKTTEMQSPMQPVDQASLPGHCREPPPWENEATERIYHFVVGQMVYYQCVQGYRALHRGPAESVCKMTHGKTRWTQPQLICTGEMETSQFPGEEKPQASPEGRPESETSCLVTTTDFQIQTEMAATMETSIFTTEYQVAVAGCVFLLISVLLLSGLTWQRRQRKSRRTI
Procedure: (§12) Karpas wt and acquired resistant cells were blocked at 4° C. for 30 mins before being incubated with a serial dilution series of HuMax-TAC mAb for 1 hour on ice. The cells were then washed and incubated with a F(ab′)2-Goat anti-Human IgG Fc Secondary Antibody conjugated to Alexa Fluor 488. After incubation for 1 hour on ice in the dark the cells were washed and run on a Fortessa X20 flow cytometer, and the mean fluorescence intensity (MFI) determined using the B530/30 laser/filter. […] In NCI-N87 cell lines there was a small decrease in MFI reached by the PBDr cell line, but the ADCr cell line was unchanged compared to the parental line (data not shown). However all cells continued to express high levels of antigen.

[6] = molecular target: T2, CD25 on Karpas-299 PBDR cells (Homo sapiens, UniProt P01589); assay: CD25 antibody binding, flow cytometry; conditions: Karpas-299 PBDR vs wt, 1 hour on ice
T2 construct: endogenous in cells; host or cells: Karpas-299 acquired-resistant sublines (ADCR: selected with ADCT-301; PBDR: selected with SG3199)
T2 sequence (P01589 22-272): T1 sequence (P01589 22-272)
Procedure: as §12

[7] = Homo sapiens, NCI-N87, 144 h, read-out: IC50 pM
[8] = Homo sapiens, KARPAS-299, read-out: IC50 nM

COc1ccc2c3c([nH]c2c1)[C@H](C=C(C)C)N1C(=O)[C@@H]2CCCN2C(=O)[C@@H]1C3 [FTC, Fumitremorgin C]
re-sensitisation to ADCT-301 treatment (Karpas-299 PBDr cells; Karpas-299 PBDr): dramatic re-sensitisation | re-sensitisation to ADCT-301 treatment (Karpas-299 ADCr cells; Karpas-299 ADCr): dramatic re-sensitisation | response to ADCT-502 (NCI-N87 ADCr cells): restored to the level of the parental cell line | response to ADCT-502 (NCI-N87 PBDr cells): restored to the level of the parental cell line

CC[C@H](C)C(=O)O[C@H]1C[C@@H](C)C=C2C=C[C@H](C)[C@H](CC[C@@H]3C[C@@H](O)CC(=O)O3)[C@H]21 [Lovastatin]
reversal of resistance by SLCO2B1 inhibitor (Karpas-299 PBDr cells; Karpas-299 PBDr, 10 nM Lovastatin with ADCT-301): failed to reverse the resistance | reversal of resistance by SLCO2B1 inhibitor (Karpas-299 ADCr cells; Karpas-299 ADCr, 10 nM Lovastatin with ADCT-301): failed to reverse the resistance | reversal of resistance by SLCO2B1 inhibitor (NCI-N87 ADCr cells; 5 μM Lovastatin with ADCT-502): failed to reverse the resistance | reversal of resistance by SLCO2B1 inhibitor (NCI-N87 PBDr cells; 5 μM Lovastatin with ADCT-502): failed to reverse the resistance

CN(C)C(=O)CCSC(SCCC(=O)[O-])c1cccc(/C=C/c2ccc3ccc(Cl)cc3n2)c1.[Na+] (stereo not drawn) [MK-571]
reversal of acquired resistance to ADCT-301 (Karpas-299 PBDr cells; Karpas PBDr, 50 μM MK-571, 96-hour continuous exposure to ADCT-301): partially reverse the resistance | re-sensitisation to ADCT-301 treatment (Karpas-299 PBDr cells; Karpas-299 PBDr): dramatic re-sensitisation | reversal of acquired resistance to ADCT-301 (Karpas-299 ADCr cells; Karpas ADCr, 50 μM MK-571, 96-hour continuous exposure to ADCT-301): partially reverse the resistance | re-sensitisation to ADCT-301 treatment (Karpas-299 ADCr cells; Karpas-299 ADCr): dramatic re-sensitisation | response to ADCT-502 (NCI-N87 ADCr cells): restored to the level of the parental cell line | response to ADCT-502 (NCI-N87 PBDr cells): restored to the level of the parental cell line

C=C1C[C@H]2C=Nc3cc(OCCCOc4cc5c(cc4OC)C(=O)N4CC(=C)C[C@H]4C=N5)c(OC)cc3C(=O)N2C1 [SG2000]
IC50 (NCI-N87 wt cells): 64 pM | IC50 [1, 7]: 483 pM | fold resistance compared to wildtype ([1]; NCI-N87 ADCr vs NCI-N87 wt IC50): 7.5 fold | IC50 [2, 8]: 2.8 nM | fold resistance compared to wildtype ([2]; Karpas ADCr vs Karpas wt IC50): 3.1 fold | IC50 [3, 8]: 4.7 nM | fold resistance compared to wildtype ([3]; Karpas PBDr vs Karpas wt IC50): 5.2 fold | IC50 [4, 7]: 493 pM | fold resistance compared to wildtype ([4]; NCI-N87 PBDr vs NCI-N87 wt IC50): 7.7 fold | IC50 (Karpas-299 wt cells): 0.9 nM

N.N.[Cl][Pt][Cl] [cisplatin]
cross-resistance (MTS growth inhibition compared to the parental cell line) [1]: decrease in growth inhibition | cross-resistance (MTS growth inhibition compared to the parental cell line) [4]: decrease in growth inhibition

COc1cccc2c1C(=O)c1c(O)c3c(c(O)c1C2=O)C[C@@](O)(C(=O)CO)C[C@@H]3O[C@H]1C[C@H](N)[C@H](O)[C@H](C)O1 [doxorubicin]
cross-resistance (MTS growth inhibition compared to the parental cell line) [1]: decrease in growth inhibition | cross-resistance (MTS cytotoxic sensitivity compared to wt cells) [2]: No cross-resistance | cross-resistance (MTS cytotoxic sensitivity compared to wt cells) [3]: No cross-resistance | cross-resistance (MTS growth inhibition compared to the parental cell line) [4]: decrease in growth inhibition

N[C@@H](Cc1ccc(N(CCCl)CCCl)cc1)C(=O)O [melphalan]
cross-resistance (MTS growth inhibition compared to the parental cell line) [1]: decrease in growth inhibition | cross-resistance (MTS cytotoxic sensitivity compared to wt cells) ([2]; Karpas ADCr vs wt/parental): No cross-resistance | cross-resistance (MTS cytotoxic sensitivity compared to wt cells) ([3]; Karpas PBDr vs wt/parental): No cross-resistance | cross-resistance (MTS growth inhibition compared to the parental cell line) [4]: decrease in growth inhibition

HuMax-TAC: fully human monoclonal IgG1,K antibody, VH SEQ ID NO. 1 and VL SEQ ID NO. 2; binds CD25
peak MFI of antibody binding compared to wildtype [5]: small decrease in peak MFI | MFI of antibody binding compared to wildtype [6]: identical to wildtype cells
